# Data: patent publication US20250325535A1, “IDENTIFICATION OF NOVEL SMALL-MOLECULE INHIBITORS OF SARS-CoV-2 BY CHEMICAL GENETICS” (The University of Hong Kong, priority 2024, published 2025)
# Columns and labels:
# [1] = test system: 3CLpro S301P recombinant SARS-CoV-2; type: cell-based; conditions: for IC50: read-out: IC50 (plaque formation assay)
# [2] = test system: SARS-CoV-2 variants and other human coronaviruses; assay: microbe, parasite or virus in culture; type: cell-based; conditions: Severe acute respiratory syndrome coronavirus 2, read-out: IC50 (antiviral)
# [3] = test system: SARS-COV-2 Alpha variant (B.1.1.7); type: in vivo, K18-hACE2 transgenic mice; conditions: n=5, IP once daily; 172 50 mg/kg, Nirmatrelvir 200 mg/kg; vehicle mice died day 5-6
Structure (SMILES),inhibition of virus replication [1],IC50 [1] [nM],IC50 [2] [nM],time of death (survival) [3]
CCOc1cc2ncc(C#N)c(Nc3ccc(F)c(Cl)c3)c2cc1NC(=O)/C=C/CN(C)C [Pelitinib],not the mutant virus,7300,–,–
CC(C)(C)[C@H](NC(=O)C(F)(F)F)C(=O)N1C[C@H]2[C@@H]([C@H]1C(=O)N[C@H](C#N)C[C@@H]1CCNC1=O)C2(C)C [Nirmatrelvir],–,20.1,4.5 to 32,"one mouse died on day 6, and all remaining mice died on day 8"
